# Assay results from patent US10738072B1, “Nucleotide analogues” (Singular Genomics Systems, Inc., priority 2018, dated 2020).
# Molecular target: T1, modified thermophilic polymerase (Therminator 3, from New England BioLabs) (Thermococcus sp., UniProt Q56366, D141A/E143A/L408S/P410V/Y409A)
# T1 construct: purchased New England BioLabs
# Experiment: Incorporation of 3′-terminated nucleotides by a modified thermophilic polymerase
# Format: biochemical, Thermococcus sp. 9 degrees N-7
# Conditions: pH 8.5, nucleotides at 200 nM, 4 mM Mg, 55° C.; polymerase pre-bound to primed DNA template
# Source text: Another important property of a nucleotide with a reversible terminator (e.g., 3′ cleavable moiety as described herein) is the ability to be rapidly incorporated by a DNA polymerase. Naturally occurring DNA polymerases are typically not capable of incorporating nucleotides modified with reversible terminator (e.g., 3′ cleavable moiety as described herein) at the 3′ position on the ribose of the nucleotide. As known in the art, a number of thermophilic polymerases have been engineered to enable the incorporation of nucleotides modified with 3′ terminators. […] The reaction was carried out in a buffered solution at pH 8.5, with nucleotides at 200 nM concentration, 4 mM Mg, at a temperature of 55° C. The polymerase was pre-bound to the primed DNA template. All three terminated nucleotides are efficiently incorporated by the modified DNA polymerase. The polymerase can be further modified for desired properties such as incorporation rate and accuracy.
# T1 sequence (Q56366 whole entry D141A/E143A/L408S/Y409A/P410V): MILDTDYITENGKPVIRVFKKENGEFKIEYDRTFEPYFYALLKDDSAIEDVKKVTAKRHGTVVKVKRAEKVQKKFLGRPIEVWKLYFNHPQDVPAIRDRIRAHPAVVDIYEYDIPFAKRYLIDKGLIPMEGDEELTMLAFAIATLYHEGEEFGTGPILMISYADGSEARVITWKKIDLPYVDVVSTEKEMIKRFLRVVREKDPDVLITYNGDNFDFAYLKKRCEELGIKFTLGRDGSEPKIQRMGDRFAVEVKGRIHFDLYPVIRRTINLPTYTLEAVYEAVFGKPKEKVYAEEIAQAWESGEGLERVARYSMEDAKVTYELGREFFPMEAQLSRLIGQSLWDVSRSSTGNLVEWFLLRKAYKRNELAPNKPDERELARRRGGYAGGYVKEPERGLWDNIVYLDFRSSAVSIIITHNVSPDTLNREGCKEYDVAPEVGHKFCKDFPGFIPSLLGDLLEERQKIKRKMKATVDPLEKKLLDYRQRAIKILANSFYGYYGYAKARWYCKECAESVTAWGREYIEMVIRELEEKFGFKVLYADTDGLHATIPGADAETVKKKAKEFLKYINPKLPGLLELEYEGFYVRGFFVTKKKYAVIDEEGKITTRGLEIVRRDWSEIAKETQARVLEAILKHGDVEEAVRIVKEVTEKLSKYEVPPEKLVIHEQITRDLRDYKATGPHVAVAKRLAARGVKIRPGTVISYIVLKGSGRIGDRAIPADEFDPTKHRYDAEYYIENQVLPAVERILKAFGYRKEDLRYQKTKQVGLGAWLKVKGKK
smiles,measurement,value
"CSSCOC1CC(n2cc(C)c(=O)[nH]c2=O)OC1COP(=O)(O)OP(=O)(O)OP(=O)(O)O (stereo not shown) [RT #1, 3′O—CH2—S—S—CH3]",Incorporation half-time,14 ± 3 s
